Results reported in patent publication US8076285B2, “Lysobactin amides” (Aicuris GmbH & Co. KG, priority 2006, dated 2011).

Settings: amide bond; 28-membered ring

Row | Substance | ring closure, isolated yield [%]
1 | [(3R)-N^2-(Benzyloxycarbonyl)-3-amino-3-(pyridin-3-yl)-L-alanyl]-[(3R)-3-hydroxy-L-leucyl]-L-leucyl-D-arginyl-L-isoleucyl-L-allothreonyl-glycyl-[(3R)-3-hydroxy-L-asparaginyl]-L-serine C^1.9-N^3.1-lactam bis-trifluoroacetate | 61
2 | [(3R)-N^2-(Benzyloxycarbonyl)-3-amino-L-leucyl]-[(3R)-3-hydroxy-L-leucyl]-L-leucyl-D-arginyl-L isoleucyl-L-allothreonyl-glycyl-[(3R)-3-hydroxy-L-asparaginyl]-L-serine C^1.9-N^3.1-lactam trifluoroacetate | 53
3 | [(3R)-N^2-(Benzyloxycarbonyl)-3-amino-L-phenylalanyl]-L-threonyl-L-leucyl-D-arginyl-L-isoleucyl-L-allothreonyl-glycyl-L-seryl C^1.9-N^3.1-lactam trifluoroacetate | 73
4 | [(3R)-N^2-(Benzyloxycarbonyl)-3-amino-L-phenylalanyl]-[(3R)-3-hydroxy-L-leucyl]-(3-trimethylsilyl-L-alanyl)-D-arginyl-L-isoleucyl-L-allothreonyl-glycyl-L-seryl-L-serine C^1.9-N^3.1-lactam trifluoroacetate | 98
5 | [(3R)-N^2-(Benzyloxycarbonyl)-3-amino-L-phenylalanyl]-[(3R)-3-hydroxy-L-leucyl]-L-isoleucyl-D-arginyl-L-isoleucyl-L-allothreonyl-glycyl-L-seryl-L-serine C^1.9-N^3.1-lactam trifluoroacetate | 62
6 | [(3R)-N^2-(Benzyloxycarbonyl)-3-amino-L-phenylalanyl]-[(3R)-3-hydroxy-L-leucyl]-L-leucyl-D-arginyl-L-isoleucyl-L-allothreonyl-D-alanyl-[(3S)-3-hydroxy-L-asparaginyl]-L-serine C^1.9-N^3.1-lactam trifluoroacetate | 48
7 | [(3R)-N^2-(Benzyloxycarbonyl)-3-amino-L-phenylalanyl]-[(3R)-3-hydroxy-L-leucyl]-L-leucyl-D-arginyl-L-isoleucyl-L-allothreonyl-D-seryl-L-seryl-L-serine C^1.9-N^3.1-lactam trifluoroacetate | 93
8 | [(3R)-N^2-(Benzyloxycarbonyl)-3-amino-L-phenylalanyl]-[(3R)-3-hydroxy-L-leucyl]-L-leucyl-D-arginyl-L-isoleucyl-L-allothreonyl-glycyl-[(2S)-2-amino-3-(9H-fluoren-9-ylmethoxycarbonyl)aminobutyryl]-L-serine C^1.9-N^3.1-lactam trifluoroacetate | 67

Same assay, conditions: amide bond; 28-membered ring; HATU/NMM; DMF; 0.0 °C

Row | Substance | ring closure, isolated yield [%]
9 | N^2.1-(Benzyloxycarbonyl)-[(3R)-3-amino-O-methyl-L-tyrosyl)]-[(3R)-3-hydroxy-L-leucyl]-L-leucyl-D-arginyl-L-isoleucyl-L-allothreonyl-glycyl-[(3S)-3-hydroxy-L-asparaginyl]-L-serine C^1.9-N^3.1-lactam trifluoroacetate | 33
10 | [(3R)-N^2-(Benzyloxycarbonyl)-3-amino-L-phenylalanyl]-[(3R)-3-hydroxy-L-leucyl]-L-leucyl-D-arginyl-L-isoleucyl-L-allothreonyl-glycyl-L-alanyl-L-serine C^1.9-N^3.1-lactam trifluoroacetate | 77
11 | [(3R)-N^2-(Benzyloxycarbonyl)-3-amino-L-phenylalanyl]-[(3R)-3-hydroxy-L-leucyl]-L-leucyl-D-arginyl-L-isoleucyl-L-allothreonyl-glycyl-L-asparaginyl-L-serine C^1.9-N^3.1-lactam trifluoroacetate | 75

Same assay, conditions: amide bond; 28-membered ring; HATU/NMM; DMF; 7.5 mM; 0.0 °C

Row | Substance | ring closure, isolated yield [%]
12 | N^2.1-(Benzyloxycarbonyl)-[(3S)-3-amino-O-methyl-D-tyrosyl)]-[(3R)-3-hydroxy-L-leucyl]-L-leucyl-D-arginyl-L-isoleucyl-L-allothreonyl-glycyl-[(3S)-3-hydroxy-L-asparaginyl]-L-serine C^1.9-N^3.1-lactam trifluoroacetate | 96
